This is an account of results in ChEMBL document CHEMBL1201862, “PubChem BioAssay data set” (2004).

Some test systems named below: A498; COLO 205; HCT-15; HL-60; HOP-92; HT-29; NCI-H226; NCI-H460; NCI/ADR-RES; OVCAR-3; OVCAR-4; SF-268; SK-MEL-5; SK-OV-3; SR; SW-620; TK-10; U-251; T47D.
What all share (assay): inhibition of tumour cell growth, NCI panel, 48 h

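Briefly, cells in 96-well plates were exposed to five compound concentrations for 48 h, and endpoints were estimated by linear interpolation. GI50 is the concentration that inhibits growth by half.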 The source made the active and inactive calls. No stated cut-off is given here; in the data, active = GI50 up to about 1.1 µM and inactive = higher.

With `CCN=C=NCCCN(C)C`, the GI50 in the experiment with A498 was > 100 µM (inactive); with COLO 205, > 100 µM (inactive); in the experiment with HCT-15 it was above 100 µM; with HL-60 it was > 100 µM (inactive); with HOP-92 it was > 100 µM (inactive); with HT-29, > 100 µM (inactive). In addition, the GI50 in the experiment on NCI-H226, with NCI-H460, with NCI/ADR-RES, with OVCAR-3, in the experiment on OVCAR-4 and in the experiment with SF-268 was > 100 µM (inactive) throughout. Also, the GI50 in the experiment on SK-MEL-5, with SK-OV-3, with SR, in the experiment on SW-620, with TK-10 and with U-251 was > 100 µM (inactive) in each case.
With `C=CC(O)(CBr)CCC(Br)C(C)(C)Cl` (stereo unspecified), the GI50 in the experiment with A498 is > 10 µM (inactive); with COLO 205 it was > 10 µM (inactive); in the experiment with HCT-15 it was above 10 µM; in the experiment on HOP-92 it was > 10 µM (inactive); in the experiment on HT-29 it was > 10 µM (inactive); in the experiment with NCI-H226, > 10 µM (inactive). The GI50 in the experiment on NCI-H460, in the experiment with NCI/ADR-RES, with OVCAR-3, in the experiment with OVCAR-4, in the experiment on SF-268 and in the experiment with SK-MEL-5 was > 10 µM (inactive) throughout. Moreover, the GI50 in the experiment with SK-OV-3, in the experiment with SW-620, in the experiment with T47D, with TK-10 and in the experiment with U-251 was > 10 µM (inactive) in each case.
As to `O=C(O)c1ccc(N2C=[N+]3C(=Nc4ccccc43)C2)cc1`, the GI50 in the experiment with A498 was > 100 µM (inactive); in the experiment with COLO 205, > 100 µM (inactive); with HCT-15 it was above 100 µM; with HL-60, > 100 µM (inactive); with HT-29 it was > 100 µM (inactive); with NCI-H226 it was > 100 µM (inactive). In addition, the GI50 with NCI-H460, in the experiment with NCI/ADR-RES, with OVCAR-3, in the experiment on OVCAR-4, with SF-268 and in the experiment with SK-MEL-5 was > 100 µM (inactive) throughout. The GI50 in the experiment on SK-OV-3, in the experiment on SW-620, with T47D, in the experiment on TK-10 and with U-251 was > 100 µM (inactive) throughout.
With `COc1cc(S(=O)(=O)Nc2ccc(-c3csc(N4C(=O)CSC4c4ccccc4O)n3)cc2)ccc1Cl` (stereo unspecified), the GI50 with COLO 205 was 24.5 µM (inactive); in the experiment with HCT-15 it was 58.5 µM; with HL-60, 22.2 µM (inactive); in the experiment on HOP-92, 29.2 µM (inactive); in the experiment with HT-29, 92 µM (inactive); with NCI-H226, 32.9 µM (inactive). The GI50 is 21.4 µM (inactive) in the experiment on NCI-H460; > 100 µM (inactive) in the experiment with NCI/ADR-RES; 84.7 µM (inactive) in the experiment with OVCAR-3; 52.2 µM (inactive) with OVCAR-4; 44.8 µM (inactive) in the experiment on SF-268; 58.7 µM (inactive) in the experiment with SK-MEL-5. For the same molecule, the GI50 with SK-OV-3 is > 100 µM (inactive); in the experiment on SR, 54.8 µM (inactive); in the experiment on SW-620, 35.2 µM (inactive).
As to `CCOC(=O)C1C2CCC(C2)C1(CCl)C(=O)OCC` (stereo unspecified), the GI50 was > 100 µM (inactive) in the experiment on A498; > 100 µM (inactive) in the experiment on COLO 205; above 100 µM in the experiment on HCT-15; > 100 µM (inactive) with HL-60; 36.6 µM (inactive) with HOP-92; > 100 µM (inactive) in the experiment with HT-29. Further, the GI50 in the experiment on NCI-H226, in the experiment on NCI-H460, in the experiment on OVCAR-3, in the experiment with OVCAR-4, in the experiment on SF-268 and in the experiment on SK-MEL-5 was > 100 µM (inactive) throughout. The GI50 with SK-OV-3, in the experiment with SR, with SW-620, in the experiment on TK-10 and in the experiment with U-251 was > 100 µM (inactive) throughout.
For `CCCC(=O)/C=C/S/C=C/C(=O)CCC`, the GI50 in the experiment on COLO 205 was 2.23 µM (inactive); in the experiment with HCT-15, 2.36 µM; in the experiment with HT-29 it was 3.26 µM (inactive); in the experiment with NCI-H226, 3.72 µM (inactive); in the experiment on NCI-H460 it was 5.3 µM (inactive); in the experiment on NCI/ADR-RES, 3.18 µM (inactive). In addition, the GI50 with OVCAR-3 was 4.09 µM (inactive); in the experiment on OVCAR-4, 4.42 µM (inactive); with SF-268 it was 26.9 µM (inactive); with SK-MEL-5 it was 4.26 µM (inactive); in the experiment with SK-OV-3 it was 34.4 µM (inactive); in the experiment on SW-620 it was 2.28 µM (inactive). Moreover, the GI50 in the experiment with T47D was 4.09 µM (inactive); with TK-10, 2.51 µM (inactive); with U-251, 14.3 µM (inactive).
As for `N#Cc1cnn2c1n[n+]([O-])c1ccc(Cl)cc12`, the GI50 with A498 was 19.3 µM (inactive); in the experiment with COLO 205, 16.6 µM (inactive); in the experiment with HCT-15, 1.97 µM; in the experiment on HL-60, 2.86 µM (inactive); in the experiment on HOP-92, 2.19 µM (inactive); with HT-29, 7.98 µM (inactive). In addition, the GI50 is 18.6 µM (inactive) with NCI-H226; 11.4 µM (inactive) in the experiment on NCI-H460; 9.68 µM (inactive) with NCI/ADR-RES; 2.96 µM (inactive) in the experiment on OVCAR-3; 2.23 µM (inactive) with OVCAR-4; 9.73 µM (inactive) in the experiment with SF-268. For the same molecule, the GI50 with SK-MEL-5 was 12.4 µM (inactive); with SK-OV-3 it was 8.61 µM (inactive); with SW-620, 9.14 µM (inactive); with T47D, 17.3 µM (inactive); with TK-10, 57.8 µM (inactive); in the experiment on U-251 it was 17 µM (inactive).
Regarding `O=c1/c(=C/c2ccc([N+](=O)[O-])o2)sc2n1[C@@H](c1ccc(Cl)cc1)C=C(c1cc(F)c(Cl)cc1Cl)N=2`, the GI50 is 30.7 µM (inactive) with A498; 3.94 µM (inactive) in the experiment with COLO 205; 8.18 µM in the experiment with HCT-15; 12.3 µM (inactive) with HL-60; 12.9 µM (inactive) with HOP-92; 6.62 µM (inactive) in the experiment on HT-29. Also, the GI50 with NCI-H226 was 15.8 µM (inactive); with NCI-H460, 10 µM (inactive); in the experiment with NCI/ADR-RES, 30.8 µM (inactive); in the experiment with OVCAR-4 it was 16.6 µM (inactive); in the experiment with SF-268 it was 13.8 µM (inactive); in the experiment with SK-MEL-5, 13.9 µM (inactive). For the same molecule, the GI50 was 14.8 µM (inactive) with SK-OV-3; 4.91 µM (inactive) in the experiment with SW-620; 19 µM (inactive) in the experiment on T47D; 16.1 µM (inactive) in the experiment on TK-10; 8.02 µM (inactive) with U-251.
Regarding `CC(C)c1ccc(NC(=S)NC(=O)c2ccccc2)cc1`, the GI50 was 22.9 µM (inactive) in the experiment on A498; 16.3 µM (inactive) in the experiment with COLO 205; 17.6 µM in the experiment with HCT-15; 3.82 µM (inactive) in the experiment with HL-60; 40.9 µM (inactive) with HOP-92; 10.4 µM (inactive) with HT-29. Besides, the GI50 with NCI-H460 was 15.5 µM (inactive); in the experiment on NCI/ADR-RES, 31.7 µM (inactive); in the experiment on OVCAR-3, 18.1 µM (inactive); with OVCAR-4, 16.9 µM (inactive); in the experiment with SF-268, 21.4 µM (inactive); with SK-MEL-5 it was 13.4 µM (inactive). For the same molecule, the GI50 in the experiment with SK-OV-3 is 42 µM (inactive); with SW-620, 22.3 µM (inactive); in the experiment on T47D, 18.7 µM (inactive); with TK-10, 18.2 µM (inactive); in the experiment on U-251, 26.9 µM (inactive).
`CN(C)CCNc1ncnc2nc(-c3ccccc3)c(-c3ccccc3)nc12`: the GI50 with A498, in the experiment on COLO 205, in the experiment with HL-60, in the experiment on HT-29, in the experiment with NCI-H226 and with NCI/ADR-RES was > 100 µM (inactive) in each case. Further, the GI50 in the experiment with OVCAR-3, with SF-268, in the experiment on SK-MEL-5, with SK-OV-3, in the experiment on SW-620 and in the experiment with T47D was > 100 µM (inactive) each time. For the same molecule, the GI50 with TK-10 and in the experiment with U-251 was > 100 µM (inactive) in each case.
For the molecule `N#Cc1c(-c2ccc([N+](=O)[O-])cc2)c(C#N)c(=O)n(NS(=O)(=O)c2ccccc2)c1S`, the GI50 with A498 is 74.6 µM (inactive); with COLO 205, 46.5 µM (inactive); with HCT-15 it was 36.9 µM; with HOP-92 it was > 100 µM (inactive); in the experiment with HT-29 it was 36.3 µM (inactive); in the experiment on NCI-H226 it was 65 µM (inactive). The GI50 in the experiment with NCI-H460 was 48.8 µM (inactive); in the experiment on NCI/ADR-RES it was 50.6 µM (inactive); with OVCAR-4, > 100 µM (inactive); with SF-268, 30 µM (inactive); in the experiment on SK-MEL-5, 10.8 µM (inactive); with SK-OV-3, 79.8 µM (inactive). Also, the GI50 in the experiment with SW-620 is 22.1 µM (inactive); with TK-10, > 100 µM (inactive); with U-251, 41.3 µM (inactive).
With `FC(F)(F)c1ccccc1/C=N/C12CC3CC(CC(C3)C1)C2`, the GI50 with A498 is > 100 µM (inactive); with COLO 205, > 100 µM (inactive); in the experiment on HCT-15 it was above 100 µM; in the experiment with HL-60, > 100 µM (inactive); in the experiment on HT-29, > 100 µM (inactive); with NCI-H226, > 100 µM (inactive). Moreover, the GI50 with NCI-H460 is > 100 µM (inactive); in the experiment on OVCAR-3, > 100 µM (inactive); in the experiment on OVCAR-4, > 100 µM (inactive); with SF-268 it was > 100 µM (inactive); with SK-MEL-5, 6.03 µM (inactive); with SK-OV-3, > 100 µM (inactive). The GI50 in the experiment with SR, in the experiment with SW-620, in the experiment with TK-10 and in the experiment with U-251 was > 100 µM (inactive) throughout.
